# ChEMBL document CHEMBL1201862, “PubChem BioAssay data set” (2004)
#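 48-hour exposure; five concentrations; linearly interpolated endpoints. At the GI50, growth is halved.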 Activity calls are given as the source filed them. Rule as the data show it: active = GI50 up to about 1.1 µM and inactive = higher. Starred links: 1 amine or outer side, 2 acyl side, 3 side chain; linkers in the order of their positions; H or OH if unused. Positions of bridges follow the written chain, without caps; N, C: chain ends. Non-standard residues stand in square brackets, D forms with d. Residues, ends and D or L forms follow the SMILES beside them. Chains are numbered I, II in the order given. Actinocin(1to9) = Cc1c2oc3c(C)ccc(C(=O)[*:2])c3nc-2c(C(=O)[*:1])c(N)c1=O; aThr = C[C@H](O)[C@H](N)C(=O)O; NMeV = CN[C@H](C(=O)O)C(C)C; Sar = CNCC(=O)O
# What was measured:
# Assay in all cases: growth of human tumour cells (NCI), 48 h
# [1] = test system: A549
# [2] = test system: COLO 205
# [3] = test system: DU-145
# [4] = test system: HCC 2998
# [5] = test system: IGROV-1
# [6] = test system: K562
# [7] = test system: KM12
# [8] = test system: MCF7
# [9] = test system: MDA-MB-231
# [10] = test system: MDA-MB-435
# [11] = test system: MDA-N
# [12] = test system: NCI-H522
# [13] = test system: NCI/ADR-RES
# [14] = test system: OVCAR-4
# [15] = test system: OVCAR-5
# [16] = test system: SF-295
# [17] = test system: SN12C
# [18] = test system: SNB-75
# [19] = test system: SR
# [20] = test system: TK-10
SMILES,GI50 [1],GI50 [2],GI50 [3],GI50 [4],GI50 [5],GI50 [6],GI50 [7],GI50 [8],GI50 [9],GI50 [10],GI50 [11],GI50 [12],GI50 [13],GI50 [14],GI50 [15],GI50 [16],GI50 [17],GI50 [18],GI50 [19],GI50 [20]
COC(=O)C(C)(/N=C/c1ccccc1)c1ccccc1 (stereo not given),> 100 µM (inactive),> 100 µM (inactive),> 100 µM (inactive),> 100 µM (inactive),> 100 µM (inactive),> 100 µM (inactive),> 100 µM (inactive),> 100 µM (inactive),> 100 µM (inactive),> 100 µM (inactive),> 100 µM (inactive),> 100 µM (inactive),> 100 µM (inactive),> 100 µM (inactive),> 100 µM (inactive),> 100 µM (inactive),> 100 µM (inactive),> 100 µM (inactive),> 100 µM (inactive),> 100 µM (inactive)
CC(=O)OC(CC(C)C)P1(=O)N(CC(C)(C)C)[C@@H]2CCCC[C@H]2N1CC(C)(C)C (stereo not given in full),5.42 µM (inactive),6 µM (inactive),15.3 µM (inactive),6.38 µM (inactive),11.7 µM (inactive),8.47 µM (inactive),9.66 µM (inactive),6.35 µM (inactive),7.24 µM (inactive),12.3 µM (inactive),8.26 µM (inactive),6.4 µM (inactive),8.3 µM (inactive),9.42 µM (inactive),10.2 µM (inactive),7.5 µM (inactive),10.7 µM (inactive),7.55 µM (inactive),10.2 µM (inactive),11.7 µM (inactive)
COc1ccc(-c2nc(N)n(C)c2SSc2c(-c3ccc(OC)cc3)nc(N)n2C)cc1,17.5 µM (inactive),2.19 µM (inactive),17.3 µM (inactive),17.8 µM (inactive),14.3 µM (inactive),2.83 µM (inactive),12.9 µM (inactive),8.51 µM (inactive),6.78 µM (inactive),3.92 µM (inactive),2.63 µM (inactive),1.81 µM (inactive),14.2 µM (inactive),6.59 µM (inactive),6.85 µM (inactive),11.6 µM (inactive),11.3 µM (inactive),3.34 µM (inactive),2.23 µM (inactive),14.5 µM (inactive)
O=CNc1ccc(S(=O)(=O)c2ccc(NC=O)cc2)cc1,> 100 µM (inactive),> 100 µM (inactive),> 100 µM (inactive),> 100 µM (inactive),> 100 µM (inactive),> 100 µM (inactive),> 100 µM (inactive),> 100 µM (inactive),> 100 µM (inactive),> 100 µM (inactive),> 100 µM (inactive),> 100 µM (inactive),> 100 µM (inactive),> 100 µM (inactive),> 100 µM (inactive),> 100 µM (inactive),> 100 µM (inactive),29.7 µM (inactive),> 100 µM (inactive),> 100 µM (inactive)
CCC(C)C(NC(=O)C(CCCCN)NC(=O)C(NC(=O)C(CCC(N)=O)NC(=O)C(N)CCCNC(=N)N)C(C)CC)C(=O)NC(Cc1c[nH]c2ccccc12)C(=O)NC(Cc1ccccc1)C(=O)NC(CCC(N)=O)C(=O)NC(CC(N)=O)C(=O)NC(CCCNC(=N)N)C(=O)NC(CCCNC(=N)N)C(=O)NC(CCSC)C(=O)NC(CCCCN)C(=O)NC(Cc1c[nH]c2ccccc12)C(=O)NC(CCCCN)C(=O)NC(CCCCN)C(=O)N1CCCC1C(=O)NC(C)C(=O)NC(CCCCN)C(=O)NC(CCCNC(=N)N)C(=O)NC(CCCCN)C(=O)NC(CC(C)C)C(=O)NC(Cc1ccccc1)C(=O)NCC(=O)O (stereo not given) (H-RQIKIWFQNRRMKWKKPAKRKLFG-OH; configuration not given here),> 25 µM (inactive),> 25 µM (inactive),> 25 µM (inactive),> 25 µM (inactive),> 25 µM (inactive),> 25 µM (inactive),9.31 µM (inactive),> 25 µM (inactive),10.5 µM (inactive),16 µM (inactive),> 25 µM (inactive),> 25 µM (inactive),> 25 µM (inactive),> 25 µM (inactive),> 25 µM (inactive),> 25 µM (inactive),> 25 µM (inactive),> 25 µM (inactive),> 25 µM (inactive),> 25 µM (inactive)
"Cc1c2oc3c(C)ccc(C(=O)N[C@@H]4C(=O)N[C@H](C(C)C)C(=O)N5CCC[C@H]5C(=O)N(C)CC(=O)N(C)[C@@H](C(C)C)C(=O)O[C@H]4C)c3nc-2c(C(=O)N[C@@H]2C(=O)N[C@H](C(C)C)C(=O)N3CCC[C@H]3C(=O)N(C)CC(=O)N(C)[C@@H](C(C)C)C(=O)O[C@H]2C)c(N)c1=O (I: [aThr][dV]P[Sar][NMeV] / II: [aThr][dV]P[Sar][NMeV]; ester I:1-I:C, II:1-II:C; linker I:N-II:N via Actinocin(1to9))",0.00206 µM (active),0.00106 µM (active),0.00393 µM (active),0.00275 µM (active),0.00217 µM (active),0.000492 µM (active),0.00128 µM (active),0.000189 µM (active),0.00455 µM (active),0.000871 µM (active),0.000631 µM (active),0.000506 µM (active),0.098 µM (active),0.00583 µM (active),0.00611 µM (active),0.00203 µM (active),0.00185 µM (active),0.0023 µM (active),0.00031 µM (active),0.0149 µM (active)
CC(C)=CCC[C@@H](C)C1=CC(=O)C(C)=C(O)C1=O [ISOPEREZONE],12.3 µM (inactive),10.2 µM (inactive),6.08 µM (inactive),17.1 µM (inactive),9.2 µM (inactive),1.58 µM (inactive),5.09 µM (inactive),3.62 µM (inactive),6.38 µM (inactive),4.31 µM (inactive),4.81 µM (inactive),1.36 µM (inactive),3.19 µM (inactive),7.1 µM (inactive),14.4 µM (inactive),14.1 µM (inactive),10.7 µM (inactive),4.5 µM (inactive),2.39 µM (inactive),5.11 µM (inactive)
